According to US7749972B2, “1-substituted-7-(β-D-glycopyranosyloxy)(aza)indole compound and pharmaceutical containing the same” (Kissei Pharmaceutical Co., Ltd., priority 2005, dated 2010):

Experiments:
human SGLT2 = biological target: T1, human SGLT2 (Homo sapiens, UniProt P31639); assay: Inhibition of methyl-α-D-glucopyranoside (α-MG) uptake in COS-7 cells expressing human SGLT2; type: cell-based; conditions: COS-7 cells transiently expressing human SGLT2; 1 mM 14C-α-MG uptake, 37° C., 1 hour
T1 construct: expressed in transfected cells; host or cells: COS-7 cells, transient lipofection (Lipofectamine-2000), vector pcDNA3.1(-)
T1 sequence (P31639 1-672): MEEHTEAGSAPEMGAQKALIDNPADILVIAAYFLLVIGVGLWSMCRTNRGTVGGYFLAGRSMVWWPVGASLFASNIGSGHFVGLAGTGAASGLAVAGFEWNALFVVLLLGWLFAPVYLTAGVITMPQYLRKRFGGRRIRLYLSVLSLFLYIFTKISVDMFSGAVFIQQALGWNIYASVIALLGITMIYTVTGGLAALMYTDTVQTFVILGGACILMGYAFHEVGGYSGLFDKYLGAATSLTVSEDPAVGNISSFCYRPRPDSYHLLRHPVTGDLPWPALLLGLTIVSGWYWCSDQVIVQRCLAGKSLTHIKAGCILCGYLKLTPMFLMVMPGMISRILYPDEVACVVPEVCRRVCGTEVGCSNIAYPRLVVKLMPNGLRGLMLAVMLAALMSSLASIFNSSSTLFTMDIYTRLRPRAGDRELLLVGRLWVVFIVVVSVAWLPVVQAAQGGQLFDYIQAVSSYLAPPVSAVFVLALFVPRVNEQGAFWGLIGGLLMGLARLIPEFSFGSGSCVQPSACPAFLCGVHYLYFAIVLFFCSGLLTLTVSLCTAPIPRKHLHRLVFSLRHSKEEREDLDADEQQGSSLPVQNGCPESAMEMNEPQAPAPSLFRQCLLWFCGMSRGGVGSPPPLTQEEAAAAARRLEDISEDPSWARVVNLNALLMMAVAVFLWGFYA
Description: (§1) Assay for Inhibitory Effects on Human SGLT Activity
2) Cloning and Construction of the Vector Expressing Human SGLT2
(§2) The cDNA library was prepared for PCR amplification by reverse transcription from total RNA derived from human kidney (Ori gene) using oligo-dT as a primer. Using this cDNA library as a template, the DNA fragment coding 2 to 2039 bp of human SGLT2 (ACCESSION: M95549, M95299), which was reported by R. G. Wells et al., was amplified by PCR method and inserted into the multi-cloning site of pcDNA3.1(−) (Invitrogen). The DNA sequence inserted was perfectly matched to the previously reported sequence.
(§3) 3) Preparation of the Cells Expressing Human SGLT1 or SGLT2 […]
(§4) A mixture of non-labeled (Sigma) and ^14C-labeled α-MG (Amersham Pharmacia Biotech) was added to the uptake buffer (pH 7.4; containing 140 mM sodium chloride, 2 mM potassium chloride, […] calcium chloride, 1 mM magnesium chloride, 10 mM 2-[4-(2-hydroxyethyl)-1-piperazinyl]ethane sulfonic acid and 5 mM tris(hydroxymethyl)aminomethane) at the final concentration of 1 mM. […] Radioactivity was measured by means of micro-scintillation counter TopCount (Packard). One hundred % was set to the difference between the uptake in the control group and the basal uptake, and the uptake of methyl α-D-glucopyranoside at each drug concentration was calculated. […]

human SGLT1 = biological target: T2, human SGLT1 (Homo sapiens, UniProt P13866); assay: Inhibition of methyl-α-D-glucopyranoside (α-MG) uptake in COS-7 cells expressing human SGLT1; type: cell-based; conditions: COS-7 cells transiently expressing human SGLT1; 1 mM 14C-α-MG uptake, 37° C., 1 hour
T2 construct: expressed in transfected cells; host or cells: COS-7 cells, transient lipofection (Lipofectamine-2000), vector pcDNA3.1(-)
T2 sequence (P13866 1-664): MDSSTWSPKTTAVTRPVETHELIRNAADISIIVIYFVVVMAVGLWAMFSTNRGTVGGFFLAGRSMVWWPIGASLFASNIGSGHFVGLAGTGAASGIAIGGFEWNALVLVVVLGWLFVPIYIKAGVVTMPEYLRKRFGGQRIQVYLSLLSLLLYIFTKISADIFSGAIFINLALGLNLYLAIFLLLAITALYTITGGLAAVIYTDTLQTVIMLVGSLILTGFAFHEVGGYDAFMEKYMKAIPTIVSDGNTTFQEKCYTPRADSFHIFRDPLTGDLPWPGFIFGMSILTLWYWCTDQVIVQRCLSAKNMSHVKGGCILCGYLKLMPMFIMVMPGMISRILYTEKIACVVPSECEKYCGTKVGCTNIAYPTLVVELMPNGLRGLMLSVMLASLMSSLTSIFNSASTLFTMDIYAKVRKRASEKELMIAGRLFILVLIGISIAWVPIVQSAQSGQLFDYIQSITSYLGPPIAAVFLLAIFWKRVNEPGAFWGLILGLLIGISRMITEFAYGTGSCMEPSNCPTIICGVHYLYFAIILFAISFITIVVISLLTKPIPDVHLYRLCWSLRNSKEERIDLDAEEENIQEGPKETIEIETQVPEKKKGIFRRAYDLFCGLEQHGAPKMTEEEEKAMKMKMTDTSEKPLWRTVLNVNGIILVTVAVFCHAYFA
Description: as §1
1) Cloning and Construction of the Vector Expressing Human SGLT1
as §2, with “small intestine” for “kidney”, “1” for “2”, “2005” for “2039”, “SGLT1” for “SGLT2”, “M24847),” for “M95549, M95299),”, “Hediger” for “R. G. Wells”
as §3, §4

IC50 (human SGLT2) [µM] | IC50 (human SGLT1) [µM] | Compound
0.066 |  | OC[C@H]1O[C@@H](Oc2cccc3ccn(CCc4ccccc4)c23)[C@H](O)[C@@H](O)[C@@H]1O [Example 4]
 | 0.235 | Cc1ccc(Cn2ccc3cccc(O[C@@H]4O[C@H](CO)[C@@H](O)[C@H](O)[C@H]4O)c32)cc1 [Example 1, 7-(1-β-Glucopyranosyloxy)-1-(4-methylbenzyl)-1H-indole]
0.016 | 0.052 | OC[C@H]1O[C@@H](Oc2cccc3ccn(CCc4ccc(O)cc4)c23)[C@H](O)[C@@H](O)[C@@H]1O [Example 7, 7-(β-D-Glucopyranosyloxy)-1-[2-(4-hydroxyphenyl)ethyl]-1H-indole]
